Reference: patent publication EP0400440B1, “Amino acid derivative anticonvulsant” (RESEARCH CORPORATION TECHNOLOGIES, INC., priority 1989, dated 1990)

Key:
[1] = Rotorod Test (Tox), neurologic toxicity; conditions: mouse, in vivo, mice, median toxic dose, 95% confidence intervals in brackets
Description: The effects of the compounds on forced and spontaneous motor activity were evaluated in mice using the Rotorod Test (Tox) or, in some cases, as indicated herein, a horizontal screen assay (HS). […] In the rotorod test, the animal was placed on a one-inch diameter knurled plastic rod rotating at 6 rpm after the administration of the drug. Normal mice can remain on a rod rotating at this speed indefinitely. Neurologic toxicity was defined as the failure of the animal to remain on the rod for one minute. In the horizontal screen test, previously trained mice were dosed with the compound and placed individually on top of a square (13 cm X 13 cm) wire screen (no. 4 mesh) which was mounted on a metal rod. The rod was rotated 180°, and the number of mice that returned to the top of the screen was determined. Inability to climb to the top within one minute was defined as "neurological impairment".

[2] = Horizontal screen test (HS), neurological impairment; format: in vivo; conditions: mouse, in vivo; mice; determined using the horizontal screen test (footnote xx); 95% confidence intervals in brackets; read-out: Tox TD50
Description: (§1) Pharmacology. The following compounds were'tested for anticonvulsant activity using male Carworth Farms #1 mice: • N-Acetyl-D,L-alanine-N'-benzylamide • N-Acetyl-D-alanine-N'-benzylamide • N-Acetyl-L-alanine-N'-benzylamide • N-Acetyl-D,L-phenylglycine-N'-methylamide • N-Acetylglycine-N-benzylamide • N-Acetyl-D,L-valine-N-benzylamide • N-Acetyl-D,L-phenylglycine-N-benzylamide • N-Acetyl-D-phenylglycine-N-benzylamide • N-Acetyl-L-phenylglycine-N-benzylamide • N-Acetyl-D,L-alanine-N-(3-methoxy)benzylamide • N-Trimethylacetyl-D,L-alanine-N-benzylamide • N-Acetyl-D,L-methionine-N-benzylamide • N-Acetyl-D,L-alanine-N'-(3-fluoro)benzylamide • D,L-α-Acetamido-N-benzyl-3-thiopheneacetamide • D,L-α-Acetamido-N-benzyl-2-thiopheneacetamide • D,L-α-Acetamido-N-benzyl-2-furanacetamide • D,L-α-Acetamido-N-benzyl-2-pyrroleacetamide • D,L-2-Acetamido-N-benzyl-2-ethoxyacetamide • D,L-α-Acetamido-N-benzyl-2-(5-methylfuran)acetamide • D,L-α-Acetamido-N-benzyl-2-benzofuranacetamide • D,L-α-Acetamido-N-benzyl-2-benzo[b]thiopheneacetamide • D,L-α-Acetamido-N-benzyl-2-(5-methylpyrrole)acetamide • D,L-α-Acetamido-N-(2-fluorobenzyl)-2-furanacetamide • D,L-α-Acetamido-N-(3-fluorobenzyl)-2-furanacetamide • D,L-α-Acetamido-N-(4-fluorobenzyl)-2-furanacetamide • D,L-α-Acetamido-N-(2,5-difluorobenzyl)-2-furanacetamide • D,L-α-Acetamido-N-(2,6-difluorobenzyl)-2-furanacetamide • D-(-)-α-Acetamido-N-benzyl-2-furanacetamide • L-(+)-α-Acetamido-N-benzyl-2-furanacetamide • D,L-2-Acetamido-4-pentenoic acid-N-benzylamide • D,L-2-Acetamido-N-benzyl-2-(1-morpholine)acetamide (reference compound) • D,L-2-Acetamido-N-benzyl-2-(N-anilino)acetamide • D,L-2-Acetamido-N-benzyl-2-(methylamino)acetamide • D,L-2-Acetamido-N-benzyl-2-(ethylamino)acetamide • D,L-2-Acetamido-N-benzyl-3-indoleacetamide (reference compound)
(§2) N-Acetyl-D,L-alanine-N'-benzylamide was tested at […] as well. […] Maximal electroshock seizures (MES) were elicited with a 60 cycle alternating current of 50 mA intensity (5-7 times that necessary to elicit minimal electroshock seizures) delivered for 0.2 sec via corneal electrodes. A drop of 0.9% saline was instilled in the eye prior to application of the electrodes so as to prevent the death of the animal. Protection in this test was defined as as the abolition of the hind limb tonic extension component of the seizure. The Subcutaneous Pentylenetetrazole (Metrazol^R) Seizure Threshold Test (sc Met) entailed the administration of 85 mg/kg of pentylenetetrazole as a 0.5% solution subcutaneously in the posterior midline. […] Protection was defined as a failure to observe even a threshold seizure (a single episode of clonic spasms of at least 5 sec duration). The effects of the compounds on forced and spontaneous motor activity were evaluated in mice using the Rotorod Test (Tox) or, in some cases, as indicated herein, a horizontal screen assay (HS). The procedure for the rotorod test is described in J. Am. Pharm. Assoc., 46, 208-209 (1957). In the rotorod test, the animal was placed on a one-inch diameter knurled plastic rod rotating at 6 rpm after the administration of the drug. Normal mice can remain on a rod rotating at this speed indefinitely. Neurologic toxicity was defined as the failure of the animal to remain on the rod for one minute. In the horizontal screen test, previously trained mice were dosed with the compound and placed individually on top of a square (13 cm X 13 cm) wire screen (no. 4 mesh) which was mounted on a metal rod. The rod was rotated 180°, and the number of mice that returned to the top of the screen was determined. Inability to climb to the top within one minute was defined as "neurological impairment". This procedure is described in Pharmacol. Biochem. Behav. 6, 351-353 (1977).
(§3) The dose effect behavior of the compounds was evaluated using the above-described procedures by the administration of varying dose levels, treating normally eight mice at each dose. […]

[3] = system: male Carworth Farms #1 mice; test: Maximal electroshock seizure test (MES); format: in vivo; conditions: Mus musculus, maximal electroshock seizures
Description: as §1, §2, §3

[4] = system: male Carworth Farms #1 mice; test: Subcutaneous Pentylenetetrazole (Metrazol) Seizure Threshold Test (sc Met); format: in vivo; conditions: 85 mg/kg pentylenetetrazole subcutaneously, 95% confidence intervals in brackets
Description: Pharmacology. […]
N-Acetyl-D,L-alanine-N'-benzylamide was tested at 600 mg/mL as well. […] The effects of the compounds on forced and spontaneous motor activity were evaluated in mice using the Rotorod Test (Tox) or, in some cases, as indicated herein, a horizontal screen assay (HS). […] The rod was rotated 180°, and the number of mice that returned to the top of the screen was determined. […]
as §3

[5] = system: male Carworth Farms #1 mice; test: Horizontal screen test (HS), neurological impairment; format: in vivo; conditions: determined using the horizontal screen test (footnote xx), 95% confidence intervals in brackets
Description: as §1, §2, §3

[6] = 50 mA, 0.2 sec, corneal electrodes, 95% confidence intervals in brackets

| Structure (SMILES) | TD50 [2] [mg/kg] | ED50 [3, 6] [mg/kg] | other results |
| --- | --- | --- | --- |
| CC(=O)NC(C(=O)NCc1ccccc1)c1ccco1 (racemic) [D,L-α-Acetamido-N-benzyl-2-furanacetamide] | 23.8 |  | TD50 [1]: > 300 mg/kg |
| CNC(NC(C)=O)C(=O)NCc1ccccc1 (racemic) [(D,L)-2-Acetamido-N-benzyl-2-(methylamino)acetamide] |  | 44.5 | TD50 [1]: 95 mg/kg |
| CCNC(NC(C)=O)C(=O)NCc1ccccc1 (racemic) [(D,L)-2-Acetamido-N-benzyl-2-(ethylamino)acetamide] |  | 42.4 |  |
| CC(=O)NC(C(=O)NCc1ccc(F)cc1)c1ccco1 (racemic) [(D,L)-α-Acetamido-N-(4-fluorobenzyl)-2-furanacetamide] | 144 | 12.7 |  |
| CC(=O)NC(C(=O)NCc1ccccc1F)c1ccco1 (racemic) [(D,L)-α-Acetamido-N-(2-fluorobenzyl)-2-furanacetamide] |  | 40 |  |
| CC(=O)NC(C(=O)NCc1cccc(F)c1)c1ccco1 (racemic) [(D,L)-α-Acetamido-N-(3-fluorobenzyl)-2-furanacetamide] | 136 | 13.3 |  |
| O=C1NC(=O)C(c2ccccc2)(c2ccccc2)N1 [phenytoin] |  |  | sc Met ED50 [4]: not effective |
| CC(=O)NC(C(=O)NCc1ccccc1)c1ccc(C)[nH]1 (racemic) [(D,L)-α-Acetamido-N-benzyl-2-(5-methylpyrrole)acetamide] |  | 36.5 |  |
| CC(=O)NC(C(=O)NCc1ccccc1)c1cc2ccccc2o1 (racemic) [(D,L)-α-Acetamido-N-benzyl-2-benzofuranacetamide] | 100 to 300 | 100 to 300 |  |
| CC(=O)NC(C(=O)NCc1ccccc1)N1CCOCC1 (racemic) [(D,L)-2-Acetamido-N-benzyl-2-(1-morpholine)acetamide, reference compound] |  | 30 to 100 |  |
| CC(=O)NC(C(=O)NCc1ccccc1)c1cc2ccccc2s1 (racemic) [(D,L)-α-Acetamido-N-benzyl-2-benzo[b]thiopheneacetamide] | 100 to 300 | 100 to 300 |  |
| CC(=O)NC(C(=O)NCc1cc(F)ccc1F)c1ccco1 (racemic) [(D,L)-α-Acetamido-N-(2,5-fluorobenzyl)-2-furanacetamide] |  | 23.8 |  |
| C=CCC(NC(C)=O)C(=O)NCc1ccccc1 (racemic) [(D,L)-2-Acetamido-4-pentenoic Acid-N-benzylamide] |  | 33.6 |  |
| CC(=O)NC(C(=O)NCc1ccccc1)c1ccc(C)o1 (racemic) [(D,L)-α-Acetamido-N-benzyl-2-(5-methylfuran)acetamide] |  | 19.2 | Tox TD50 [5]: 75.4^xx mg/kg |
| CC(=O)NC(C(=O)NCc1c(F)cccc1F)c1ccco1 (racemic) [(D,L)-α-Acetamido-N-(2,6-difluorobenzyl)-2-furanacetamide] |  | 25 to 100 |  |
| CC(=O)NC(Nc1ccccc1)C(=O)NCc1ccccc1 (racemic) [(D,L)-2-Acetamido-N-benzyl-2-(N-anilino)acetamide] |  |  | ED50 ([3]; result given as footnote symbol): ≥ 300 mg/kg |
